The results in this text go back to patent US9290451B2 (Hoffmann-La Roche Inc., priority 2011, dated 2016).

In assay [1] the target is human CB1 receptors (Homo sapiens (Human), UniProt P21554). Nature of the assay: cAMP assay, CHO cells expressing human CB1 receptors. Conditions: CHO cells expressing human CB1, cAMP; read-out: human CB1 EC50. The format is cell-based. The procedure, abridged: (§1)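 CHO cells, KRB buffer + 1 mM IBMX, 30 min 30 °C preincubation; compound 30 min 30 °C; lysis + TR-FRET cAMP detection, 2 h RT; cAMP from standard curve (10 μM–0.13 nM); EC50.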

For assay [2], the target named is human CB2 receptors (Homo sapiens (Human), UniProt P34972). Nature of the assay: cAMP assay, CHO cells expressing human CB2 receptors. The format is cell-based. Conditions: CHO cells expressing human CB2, cAMP; read-out: human CB2 EC50. The procedure, abridged: as §1

Structures are written as SMILES.

Chain of human CB2 receptors (P34972 whole entry): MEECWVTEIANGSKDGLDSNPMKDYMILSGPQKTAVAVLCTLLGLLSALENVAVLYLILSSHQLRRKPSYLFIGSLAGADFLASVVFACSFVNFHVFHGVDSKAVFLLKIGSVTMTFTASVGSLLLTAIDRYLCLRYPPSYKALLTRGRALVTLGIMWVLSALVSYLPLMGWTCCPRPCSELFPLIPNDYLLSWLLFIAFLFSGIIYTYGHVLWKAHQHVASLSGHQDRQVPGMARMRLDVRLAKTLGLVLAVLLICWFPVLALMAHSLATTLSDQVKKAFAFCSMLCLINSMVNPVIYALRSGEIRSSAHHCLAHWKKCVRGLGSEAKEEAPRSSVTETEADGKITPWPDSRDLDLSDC
Chain of human CB1 receptors (P21554 whole entry): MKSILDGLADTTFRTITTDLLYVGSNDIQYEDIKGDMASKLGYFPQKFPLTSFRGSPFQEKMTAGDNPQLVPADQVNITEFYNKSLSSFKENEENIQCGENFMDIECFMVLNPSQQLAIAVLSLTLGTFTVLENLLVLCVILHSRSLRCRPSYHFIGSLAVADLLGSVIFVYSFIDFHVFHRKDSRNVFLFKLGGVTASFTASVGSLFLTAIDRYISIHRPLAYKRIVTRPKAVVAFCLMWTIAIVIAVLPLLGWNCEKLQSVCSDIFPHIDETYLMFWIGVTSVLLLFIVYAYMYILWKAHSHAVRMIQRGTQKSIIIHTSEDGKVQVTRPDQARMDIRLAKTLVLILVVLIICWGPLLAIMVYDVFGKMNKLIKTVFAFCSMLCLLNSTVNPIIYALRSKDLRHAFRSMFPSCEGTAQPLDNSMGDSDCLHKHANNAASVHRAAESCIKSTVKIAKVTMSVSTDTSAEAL

Turning to `CC(C)C[C@H](NC(=O)c1cccc(S(=O)(=O)CC(C)C)n1)C(N)=O` [Example 330, 6-(2-Methyl-propane-1-sulfonyl)-pyridine-2-carboxylic acid ((S)-1-carbamoyl-3-methyl-butyl)-amide], the EC50 is greater than 10000 nM in assay [1] and 869 nM in assay [2].
In the case of `CC(C)CSc1cccc(C(=O)N[C@@H](CC(C)C)C(N)=O)n1` [Example 331, 6-Isobutylsulfanyl-pyridine-2-carboxylic acid ((S)-1-carbamoyl-3-methyl-butyl)-amide], the EC50 was greater than 10000 nM in assay [1] and 16.6 nM in assay [2].
With `O=C(N[C@@H](c1ccccn1)C(F)(F)F)c1ccc(C2CC2)c(Cc2ccc(F)cc2)n1` [Example 332, 5-Cyclopropyl-6-(4-fluoro-benzyl)-pyridine-2-carboxylic acid ((S)-2,2,2-trifluoro-1-pyridin-2-yl-ethyl)-amide], the EC50 in assay [1] came out at 91 nM; in assay [2], 4.5 nM.
In the case of `CCC(CC)(NC(=O)c1ccc(C2CC2)c(Cc2ccc(F)cc2)n1)C(=O)O` [Example 333, 2-{[5-Cyclopropyl-6-(4-fluoro-benzyl)-pyridine-2-carbonyl]-amino}-2-ethyl-butyric acid], the EC50 in assay [1] was found to be 81 nM; in assay [2], 8 nM.
The like results for `Cc1nc(C(C)(C)NC(=O)c2ccc(N3CCC(=O)C3)c(OCC3CC3)n2)no1` [Example 334, 6-Cyclopropylmethoxy-5-(3-oxo-pyrrolidin-1-yl)-pyridine-2-carboxylic acid [1-methyl-1-(5-methyl-[1,2,4]oxadiazol-3-yl)-ethyl]-amide] were, in that order, greater than 10000 nM and 108 nM.
In the case of `Cc1nc([C@H](CC(C)C)NC(=O)c2cccc(S(=O)(=O)CC(C)C)n2)no1` [Example 335, 6-(2-Methyl-propane-1-sulfonyl)-pyridine-2-carboxylic acid [(S)-3-methyl-1-(5-methyl-[1,2,4]oxadiazol-3-yl)-butyl]-amide], the figures for the EC50 in assay [1] and in assay [2] were greater than 10000 nM and 962 nM, respectively.
The like results for `CC(C)C[C@H](NC(=O)c1ccc(C2CC2)c(Cc2ccc(F)cc2)n1)C(=O)O` [Example 336, (S)-2-{[5-Cyclopropyl-6-(4-fluoro-benzyl)-pyridine-2-carbonyl]-amino}-4-methyl-pentanoic acid] were, in that order, greater than 10000 nM and 239 nM.
For the molecule `CCC(CC)(NC(=O)c1ccc(C2CC2)c(OCC2CCOCC2)n1)C(=O)O` [Example 337, 2-{[5-Cyclopropyl-6-(tetrahydro-pyran-4-ylmethoxy)-pyridine-2-carbonyl]-amino}-2-ethyl-butyric acid], the concentration for a half-maximal effect (EC50) in assay [1] amounted to 475 nM; in assay [2], 34.5 nM.
The matching figures for `Cn1c(C(C)(C)NC(=O)c2ccc(C3CC3)c(OCC3CC3)n2)noc1=O` [Example 338, 5-Cyclopropyl-6-cyclopropylmethoxy-pyridine-2-carboxylic acid [1-methyl-1-(4-methyl-5-oxo-4,5-dihydro-[1,2,4]oxadiazol-3-yl)-ethyl]-amide]: greater than 10000 nM and 534 nM.
Take `CC(C)CC(NC(=O)c1ccc(N2CC(F)(F)C2)c(OCC2CC2)n1)c1ncccn1` (stereo not drawn) [Example 339, 6-Cyclopropylmethoxy-5-(3,3-difluoro-azetidin-1-yl)-pyridine-2-carboxylic acid (3-methyl-1-pyrimidin-2-yl-butyl)-amide]: the EC50 in assay [1] is greater than 10000 nM; in assay [2] it was 64.9 nM.
The matching figures for `Cc1nc(C(C)(NC(=O)c2ccc(N3CC(F)(F)C3)c(OCC3CC3)n2)C2CC2)no1` (stereo not drawn) [Example 340, 6-Cyclopropylmethoxy-5-(3,3-difluoro-azetidin-1-yl)-pyridine-2-carboxylic acid [1-cyclopropyl-1-(5-methyl-[1,2,4]oxadiazol-3-yl)-ethyl]-amide]: greater than 10000 nM and 5.7 nM.
Consider `Cc1nc(C(C)(CC2CC2)NC(=O)c2ccc(N3CC(F)(F)C3)c(OCC3CC3)n2)no1` (stereo not drawn) [Example 341, 6-Cyclopropylmethoxy-5-(3,3-difluoro-azetidin-1-yl)-pyridine-2-carboxylic acid [2-cyclopropyl-1-methyl-1-(5-methyl-[1,2,4]oxadiazol-3-yl)-ethyl]-amide], for which the EC50 was greater than 10000 nM in assay [1] and 8.4 nM in assay [2].
The matching figures for `CSCC[C@H](NC(=O)c1ccc(N2CC(F)(F)C2)c(OCC2CC2)n1)C(N)=O` [Example 342, 6-Cyclopropylmethoxy-5-(3,3-difluoro-azetidin-1-yl)-pyridine-2-carboxylic acid ((S)-1-carbamoyl-3-methylsulfanyl-propyl)-amide]: greater than 10000 nM and 2.8 nM.
With `Cc1nc([C@H](CC2CC2)NC(=O)c2cccc(-c3ccc(F)c(Cl)c3)n2)no1` [Example 343, 6-(3-Chloro-4-fluoro-phenyl)-pyridine-2-carboxylic acid [(S)-2-cyclopropyl-1-(5-methyl-[1,2,4]oxadiazol-3-yl)-ethyl]-amide], the concentration giving a half-maximal response (EC50) in assay [1] is greater than 10000 nM; in assay [2], 3.5 nM.
For `CC(C)C[C@@H](CNc1ccc([N+](=O)[O-])c2nonc12)NC(=O)c1ccc(N2CCCC2)c(OCC2CC2)n1` [Example 344, 6-Cyclopropylmethoxy-5-pyrrolidin-1-yl-pyridine-2-carboxylic acid {(S)-3-methyl-1-[(7-nitro-benzo[1,2,5]oxadiazol-4-ylamino)-methyl]-butyl}-amide], the EC50 in assay [1] was greater than 10000 nM; in assay [2] it was 25.6 nM.
For `CS(=O)(=O)CC[C@H](NC(=O)c1ccc(N2CC(F)(F)C2)c(OCC2CC2)n1)C(N)=O` [Example 345, 6-Cyclopropylmethoxy-5-(3,3-difluoro-azetidin-1-yl)-pyridine-2-carboxylic acid ((S)-1-carbamoyl-3-methanesulfonyl-propyl)-amide], the concentration giving a half-maximal response (EC50) in assay [1] was greater than 10000 nM; in assay [2], 295 nM.
The like results for `CC(C)CSc1nc(C(=O)N[C@@H](CC(C)C)C(N)=O)ccc1C1CC1` [Example 346, 5-Cyclopropyl-6-isobutylsulfanyl-pyridine-2-carboxylic acid ((S)-1-carbamoyl-3-methyl-butyl)-amide] were, in that order, greater than 10000 nM and 11 nM.
The matching figures for `Cc1nc([C@H](CC2CC2)NC(=O)c2cccc(-c3cccc(F)c3)n2)no1` [Example 347, 6-(3-Fluoro-phenyl)-pyridine-2-carboxylic acid [(S)-2-cyclopropyl-1-(5-methyl-[1,2,4]oxadiazol-3-yl)-ethyl]-amide]: greater than 10000 nM and 50 nM.
The matching figures for `Cc1nc([C@H](CC2CC2)NC(=O)c2cccc(-c3ccc(F)c(C(F)(F)F)c3)n2)no1` [Example 348, 6-(4-Fluoro-3-trifluoromethyl-phenyl)-pyridine-2-carboxylic acid [(S)-2-cyclopropyl-1-(5-methyl-[1,2,4]oxadiazol-3-yl)-ethyl]-amide]: greater than 10000 nM and 24.6 nM.
Turning to `CC(C)(CCS(C)(=O)=O)NC(=O)c1ccc(C2CC2)c(OCC2CC2)n1` [Example 349, 5-Cyclopropyl-6-cyclopropylmethoxy-pyridine-2-carboxylic acid (3-methanesulfonyl-1,1-dimethyl-propyl)-amide], the EC50 was greater than 10000 nM in assay [1] and 477 nM in assay [2].
`Cc1cnc(C(C)(C)NC(=O)c2ccc(C3CC3)c(OCC3CC3)n2)s1` [Example 350, 5-Cyclopropyl-6-cyclopropylmethoxy-pyridine-2-carboxylic acid [1-methyl-1-(5-methyl-thiazol-2-yl)-ethyl]-amide]: the EC50 in assay [1] was greater than 10000 nM; in assay [2], 3.6 nM.
The matching figures for `CC(C)C[C@H](NC(=O)c1ccc(C2CC2)c(S(=O)(=O)CC(C)C)n1)C(N)=O` [Example 351, 5-Cyclopropyl-6-(2-methyl-propane-1-sulfonyl)-pyridine-2-carboxylic acid ((S)-1-carbamoyl-3-methyl-butyl)-amide]: greater than 10000 nM and 39.9 nM.
The matching figures for `Cc1nc([C@H](CC2CC2)NC(=O)c2ccc(C3CC3)c(S(=O)(=O)CC(C)C)n2)no1` [Example 352, 5-Cyclopropyl-6-(2-methyl-propane-1-sulfonyl)-pyridine-2-carboxylic acid [(S)-2-cyclopropyl-1-(5-methyl-[1,2,4]oxadiazol-3-yl)-ethyl]-amide]: greater than 10000 nM and 189 nM.
Turning to `CC(C)C[C@@H](NC(=O)c1ccc(N2CC(F)(F)C2)c(OCC2CC2)n1)c1cccnn1` [Example 354, 6-Cyclopropylmethoxy-5-(3,3-difluoro-azetidin-1-yl)-pyridine-2-carboxylic acid ((R)-3-methyl-1-pyridazin-3-yl-butyl)-amide], the results for the EC50 in assay [1] and in assay [2] were greater than 10000 nM and 14.9 nM, respectively.
The like results for `CC(C)C[C@H](NC(=O)c1ccc(N2CC(F)(F)C2)c(OCC2CC2)n1)c1cccnn1` [Example 355, 6-Cyclopropylmethoxy-5-(3,3-difluoro-azetidin-1-yl)-pyridine-2-carboxylic acid ((S)-3-methyl-1-pyridazin-3-yl-butyl)-amide] were, in that order, greater than 10000 nM and 80.1 nM.
As to `CCC(CC)(NC(=O)c1ccc(C2CC2)c(OCC2CC2)n1)C(=O)NCCO` [Example 356, 5-Cyclopropyl-6-cyclopropylmethoxy-pyridine-2-carboxylic acid [1-ethyl-1-(2-hydroxy-ethylcarbamoyl)-propyl]-amide], the concentration for a half-maximal effect (EC50) is greater than 10000 nM in assay [1] and 5.2 nM in assay [2].
For `Cc1nc([C@](C)(CC2CC2)NC(=O)c2ccc(C3CC3)c(OCC3CC3)n2)no1` [Example 357, 5-Cyclopropyl-6-cyclopropylmethoxy-pyridine-2-carboxylic acid [(+)-2-cyclopropyl-1-methyl-1-(5-methyl-[1,2,4]oxadiazol-3-yl)-ethyl]-amide], the EC50 in assay [1] turned out to be 199 nM; in assay [2], 1.5 nM.
